Measurements taken from patent US20260015364A1, “PIPERAZINE BRIDGE-SUBSTITUTED HETEROCYCLIC PYRIMIDINE COMPOUND” (MEDSHINE DISCOVERY INC., priority 2022, published 2026).

System: p-ERK in GP2D cells
Test: p-ERK inhibition test of GP2D cells (HTRF)
Type: cell-based
Settings: Homo sapiens, 1 hour compound incubation
Procedure: • 1). GP2D cells are seeded in a transparent 96-well cell culture plate, with 80 μL of cell suspension per well and 8000 cells per well, and the cell plate is incubated in a carbon dioxide incubator at 37° C. overnight; • 2). 2 μL of the compound is added to 78 μL of cell culture medium; after mixing well, 20 μL of the compound solution is taken and added to the corresponding cell plate wells, and the cell plate is put back into the carbon dioxide incubator to incubate for another 1 hour; • 3). After the incubation is completed, the cell supernatant is discarded, and 50 μL of 1× cell lysate is added to each well, and incubated at room temperature for 30 minutes with shaking; • 4). Phospho-ERK1/2 Eu Cryptate antibody and Phospho-ERK1/2 d2 antibody are 20-fold diluted using detection buffer; • 5). […] After the incubation is completed, a multimode microplate reader is used to read HTRF excitation: 320 nm, emission: 615 nm, 665 nm; • 7). The IC50 of the test compound is calculated.
• 1). […] After the incubation was completed, a multimode microplate reader was used to read HTRF excitation: 320 nm, emission: 615 nm, 665 nm; • 7) The IC50 of the test compound was calculated.

## C#Cc1c(F)ccc2cc(N)cc(-c3ncc4c(N5CC6CCC(C5)N6)nc(OC[C@@]56CC(=C)CN5C[C@@H]5C[C@@H]56)nc4c3F)c12 (single isomer, unassigned) [Compound 3]
  IC50: 2.4 nM
